Results on 19 compounds are retold here after patent US8114880B2, “Piperidine or piperazine substituted tetrahydro-naphthalene-1-carboxylic acid MTP inhibiting compounds” (Janssen Pharmaceutica N.V., priority 2006, dated 2012).

Sequence of MTP (P55157 19-894, species assumed): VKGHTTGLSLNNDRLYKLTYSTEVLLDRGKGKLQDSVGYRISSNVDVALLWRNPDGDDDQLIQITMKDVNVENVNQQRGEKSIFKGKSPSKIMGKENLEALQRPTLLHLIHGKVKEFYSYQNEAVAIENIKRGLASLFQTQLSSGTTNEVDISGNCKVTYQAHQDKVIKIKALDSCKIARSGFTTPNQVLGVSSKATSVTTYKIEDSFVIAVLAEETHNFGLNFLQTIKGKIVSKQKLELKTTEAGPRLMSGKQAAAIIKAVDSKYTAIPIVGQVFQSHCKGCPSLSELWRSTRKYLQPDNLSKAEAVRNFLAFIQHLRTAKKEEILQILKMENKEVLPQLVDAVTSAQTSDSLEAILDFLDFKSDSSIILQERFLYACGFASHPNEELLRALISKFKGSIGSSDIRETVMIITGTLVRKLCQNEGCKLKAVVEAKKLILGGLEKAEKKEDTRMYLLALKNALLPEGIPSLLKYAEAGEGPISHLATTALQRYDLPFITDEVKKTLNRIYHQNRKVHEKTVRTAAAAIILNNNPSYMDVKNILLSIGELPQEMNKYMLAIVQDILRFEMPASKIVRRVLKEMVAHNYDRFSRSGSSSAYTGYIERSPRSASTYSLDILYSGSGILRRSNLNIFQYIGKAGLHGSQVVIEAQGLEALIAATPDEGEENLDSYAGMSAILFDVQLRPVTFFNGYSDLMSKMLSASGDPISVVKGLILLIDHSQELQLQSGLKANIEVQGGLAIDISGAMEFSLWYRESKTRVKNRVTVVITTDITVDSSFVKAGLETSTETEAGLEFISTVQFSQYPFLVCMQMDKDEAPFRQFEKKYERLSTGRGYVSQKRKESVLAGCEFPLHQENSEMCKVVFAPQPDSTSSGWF
Sequence of MTP (P07237 18-508 partner, species assumed): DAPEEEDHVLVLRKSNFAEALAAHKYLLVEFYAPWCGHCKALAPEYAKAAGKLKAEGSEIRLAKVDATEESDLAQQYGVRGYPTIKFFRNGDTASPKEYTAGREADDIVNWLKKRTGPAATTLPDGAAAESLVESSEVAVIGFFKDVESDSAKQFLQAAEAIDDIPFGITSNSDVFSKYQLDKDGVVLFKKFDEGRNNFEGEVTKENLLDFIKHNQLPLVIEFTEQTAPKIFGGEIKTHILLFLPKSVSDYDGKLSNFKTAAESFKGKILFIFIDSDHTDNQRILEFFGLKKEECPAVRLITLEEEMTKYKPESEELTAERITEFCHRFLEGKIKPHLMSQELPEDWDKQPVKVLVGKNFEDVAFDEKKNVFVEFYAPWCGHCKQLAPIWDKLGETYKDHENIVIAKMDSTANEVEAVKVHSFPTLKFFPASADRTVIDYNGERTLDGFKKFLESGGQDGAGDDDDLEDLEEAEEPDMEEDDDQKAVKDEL

This assay deals with MTP (Homo sapiens, UniProt P55157). Put plainly: MTP assay (triglyceride transfer from donor to acceptor vesicles). Conditions: MTP activity, percent triglyceride transfer from donor to acceptor vesicles, 37° C. Type of assay: biochemical. The protocol:
MTP activity was measured using an assay similar to one described by J. R. Wetterau and D. B. Zilversmit in Chemistry and Physics of Lipids, 38, 205-222 (1985). To prepare the donor and acceptor vesicles, the appropriate lipids in chloroform were put into a glass test tube and dried under a stream of nitrogen. A buffer containing 15 mM Tris-HCl pH 7.5, 1 mM EDTA, 40 mM NaCl, 0.02% NaN3 (assay buffer) was added to the dried lipid. The mixture was vortexed briefly and the lipids were then allowed to hydrate for 20 minutes on ice. Vesicles were then prepared by bath sonication (Branson 2200) at room temperature for maximum 15 minutes. Butylated hydroxytoluene was included in all vesicle preparations at a concentration of 0.1%. The lipid transfer assay mixture contained donor vesicles (40 nmol phosphatidylcholine, 7.5 mol % of cardiolipin and 0.25 mol % glycerol tri [1-^14C]-oleate), acceptor vesicles (240 nmol phosphatidylcholine) and 5 mg BSA in a total volume of 675 μl in a 1.5 ml microcentrifuge tube. Test compounds were added dissolved in DMSO (0.13% final concentration). After 5 minutes of pre-incubation at 37° C., the reaction was started by the addition of MTP in 100 μl dialysis buffer. The reaction was stopped by the addition of 400 μl DEAE-52 cellulose pre-equilibrated in 15 mM Tris-HCl pH 7.5, 1 mM EDTA, 0.02% NaN3 (1:1, vol/vol). The mixture was agitated for 4 minutes and centrifuged for 2 minutes at maximum speed in an Eppendorf centrifuge (4° C.) to pellet the DEAE-52-bound donor vesicles. An aliquot of the supernatant containing the acceptor liposomes was counted and the [^14C]-counts were used to calculate the percent triglyceride transfer from donor to acceptor vesicles.
In general, IC50 refers to the concentration that gives 50% inhibition. Low values mean greater potency, high ones weaker potency. `CCOC(=O)[C@H]1CCCN1C(=O)[C@@]1(c2ccccc2)CC[C@H](C(=O)N2CCC(NC(=O)c3cccn(C)c3=O)CC2)c2ccccc21` [Co. No. 150] showed an IC50 of more than 10000 nM.
Turning to `COC(=O)[C@@H]1C[C@@H](O)CN1C(=O)[C@@]1(c2ccccc2)CC[C@H](C(=O)N2CCC(NC(=O)c3cccn(C)c3=O)CC2)c2ccccc21` [Co. No. 151], the IC50 is more than 10000 nM.
Next, `CCOC(=O)[C@H](NC(=O)[C@@]1(c2ccccc2)CC[C@H](C(=O)N2CCC(NC(=O)c3cccn(C)c3=O)CC2)c2ccccc21)c1ccccc1` [Co. No. 152]: 1630 nM; `CCOC(=O)[C@@H](NC(=O)[C@@]1(c2ccccc2)CC[C@H](C(=O)N2CCC(NC(=O)c3cccn(C)c3=O)CC2)c2ccccc21)c1ccccc1` [Co. No. 153]: 1110 nM; `CCOC(=O)[C@H](Cc1ccccc1)NC(=O)[C@@]1(c2ccccc2)CC[C@H](C(=O)N2CCC(NC(=O)c3cccn(C)c3=O)CC2)c2ccccc21` [Co. No. 154]: 1850 nM.
Next, `CCOC(=O)[C@@H](Cc1ccccc1)NC(=O)[C@@]1(c2ccccc2)CC[C@H](C(=O)N2CCC(NC(=O)c3cccn(C)c3=O)CC2)c2ccccc21` [Co. No. 155]: 731 nM; `CCOC(=O)C(Cc1ccc(O)cc1)NC(=O)[C@@]1(c2ccccc2)CC[C@H](C(=O)N2CCC(NC(=O)c3cccn(C)c3=O)CC2)c2ccccc21` (stereo partly shown) [Co. No. 156]: 1530 nM.
The figure for `CCOC(=O)C(Cc1c[nH]c2ccccc12)NC(=O)[C@@]1(c2ccccc2)CC[C@H](C(=O)N2CCC(NC(=O)c3cccn(C)c3=O)CC2)c2ccccc21` (stereo partly shown) [Co. No. 157] is 1650 nM; for `COC(=O)CNC(=O)[C@@]1(c2ccccc2)CC[C@H](C(=O)N2CCC(NC(=O)c3cccn(C)c3=O)CC2)c2ccccc21` [Co. No. 158] it is 847 nM; for `Cn1cccc(C(=O)NC2CCN(C(=O)C3CC[C@@](C(=O)NCC(=O)OC(C)(C)C)(c4ccccc4)c4ccccc43)CC2)c1=O` (stereo partly shown) [Co. No. 160] it is 366 nM.
As to `C[C@H](NC(=O)[C@@]1(c2ccccc2)CC[C@H](C(=O)N2CCC(NC(=O)c3cccn(C)c3=O)CC2)c2ccccc21)C(=O)OC(C)(C)C` [Co. No. 161], the IC50 is 458 nM. This IC50 and that of the compound before are within 1.5-fold of each other.
Next, `C[C@@H](NC(=O)[C@@]1(c2ccccc2)CC[C@H](C(=O)N2CCC(NC(=O)c3cccn(C)c3=O)CC2)c2ccccc21)C(=O)OC(C)(C)C` [Co. No. 162]: 1790 nM; `CN(CC(=O)OC(C)(C)C)C(=O)[C@@]1(c2ccccc2)CC[C@H](C(=O)N2CCC(NC(=O)c3cccn(C)c3=O)CC2)c2ccccc21` [Co. No. 163]: 1450 nM; `CC(C)[C@H](NC(=O)[C@@]1(c2ccccc2)CC[C@H](C(=O)N2CCC(NC(=O)c3cccn(C)c3=O)CC2)c2ccccc21)C(=O)OC(C)(C)C` [Co. No. 165]: 506 nM.
For `CC(C)[C@@H](NC(=O)[C@@]1(c2ccccc2)CC[C@H](C(=O)N2CCC(NC(=O)c3cccn(C)c3=O)CC2)c2ccccc21)C(=O)OC(C)(C)C` [Co. No. 166], inhibition was half-maximal at 755 nM (IC50).
The figure for `CC(C)C[C@H](NC(=O)[C@@]1(c2ccccc2)CC[C@H](C(=O)N2CCC(NC(=O)c3cccn(C)c3=O)CC2)c2ccccc21)C(=O)OC(C)(C)C` [Co. No. 167] is 793 nM.
Next, `Cn1cccc(C(=O)NC2CCN(C(=O)[C@H]3CC[C@@](C(=O)N[C@@H](COC(C)(C)C)C(=O)OC(C)(C)C)(c4ccccc4)c4ccccc43)CC2)c1=O` [Co. No. 168]: 697 nM; `Cn1cccc(C(=O)NC2CCN(C(=O)[C@H]3CC[C@@](C(=O)N[C@@H](CC(=O)OC(C)(C)C)C(=O)OC(C)(C)C)(c4ccccc4)c4ccccc43)CC2)c1=O` [Co. No. 169]: 1750 nM.
As for `Cn1cccc(C(=O)NC2CCN(C(=O)[C@H]3CC[C@@](C(=O)N[C@@H](CCC(N)=O)C(=O)OC(C)(C)C)(c4ccccc4)c4ccccc43)CC2)c1=O` [Co. No. 170], the IC50 was more than 10000 nM.
